# Measured values published in article PMC10726465, “Synthesis and Evaluation of Small Molecule Inhibitors of the Androgen Receptor N-Terminal Domain” (ACS Medicinal Chemistry Letters, 2023).
# Molecular target: T1, androgen receptor (AR) (Homo sapiens, UniProt P10275)
# T1 sequence (P10275 1-920): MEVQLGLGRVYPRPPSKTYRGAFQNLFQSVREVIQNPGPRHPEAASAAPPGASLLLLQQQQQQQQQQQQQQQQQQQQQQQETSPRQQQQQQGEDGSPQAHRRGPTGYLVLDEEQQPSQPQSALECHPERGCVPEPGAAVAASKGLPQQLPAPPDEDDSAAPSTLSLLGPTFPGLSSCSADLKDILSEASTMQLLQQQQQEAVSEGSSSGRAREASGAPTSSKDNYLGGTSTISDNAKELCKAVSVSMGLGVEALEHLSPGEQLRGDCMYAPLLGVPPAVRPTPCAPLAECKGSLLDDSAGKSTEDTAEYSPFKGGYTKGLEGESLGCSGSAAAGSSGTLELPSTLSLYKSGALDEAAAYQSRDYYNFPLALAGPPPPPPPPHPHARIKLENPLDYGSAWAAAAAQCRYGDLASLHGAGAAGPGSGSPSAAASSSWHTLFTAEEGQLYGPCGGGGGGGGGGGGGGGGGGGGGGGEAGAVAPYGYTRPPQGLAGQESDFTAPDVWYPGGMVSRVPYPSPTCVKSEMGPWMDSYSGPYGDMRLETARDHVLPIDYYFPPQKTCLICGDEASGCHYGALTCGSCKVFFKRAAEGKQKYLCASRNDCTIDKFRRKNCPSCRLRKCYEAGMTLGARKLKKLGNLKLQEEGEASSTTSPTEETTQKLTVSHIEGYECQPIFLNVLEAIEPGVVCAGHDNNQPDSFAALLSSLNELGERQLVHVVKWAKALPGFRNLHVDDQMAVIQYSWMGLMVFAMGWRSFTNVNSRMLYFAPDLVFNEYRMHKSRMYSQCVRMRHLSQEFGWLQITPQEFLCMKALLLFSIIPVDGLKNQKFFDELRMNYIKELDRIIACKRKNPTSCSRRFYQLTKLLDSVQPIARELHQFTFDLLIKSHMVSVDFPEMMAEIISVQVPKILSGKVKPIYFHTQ
# Conditions: VCaP GRE2-luciferase IC50 ratio
# Protocol: VCaP cells, obtained from the American Type Culture Collection, were maintained in Dulbecco’s Modified Eagles Medium (DMEM) supplemented with 10% foetal bovine serum. Cells were maintained at 37°C without antibiotics in a humidified atmosphere
# Transient transfection and Luciferase Activity Assay:
# Cells at 70–80% confluence in 24 well plates, were transferred to DMEM
# 300ng/well of the firefly reporter plasmid, GRE2-TATA-luc using JetPEI (PolyPLUS Transfection) according to the manufacturers’ protocol.
# replaced with fresh DMEM +5% CSS containing either DMSO (vehicle control) or 0– 30 µM small molecules together with 1nM DHT. Twenty four hours later, medium was aspirated, cells were washed with PBS and extracted with Passive Lysis Buffer
# Cell debris was removed by centrifugation at 13,000 xg for 5min and supernatants collected. Luciferase activity was measured in triplicate, using an in-house luciferase assay buffer (13 mM MgSO4 7H2O, 30 mM
# amount of total cellular protein.
# Inhibition of hormone-dependent expression of prostate specific antigen (PSA):
# VCaP prostate cells were treated with 1 nM DHT in the absence or presence of inhibitor. After 24 hours cells were harvested and PSA detected by Western blotting and normalised against β-actin.
# Luciferase activity in cells treated with small molecules was determined as a percentage of the untreated control, which was set at 100%. Plots of activity against small molecule concentration (log) were analysed in GraphPad PRISM 5 and IC50 values for each small molecule determined.
row,Compound,decrease in activity relative to indazole 12
1,CSc1ccc(C(N)=O)cc1-c1ccc2[nH]ccc2c1 [Compound 13],10 fold

# Same assay, conditions: VCaP cells, 1 nM DHT
row,activity in VCaP GRE2-luciferase assay (in words),Compound
1,inactive,CSc1ccc(C(N)=O)cc1-c1cccc(O)c1F [Compound 31]
2,Activity was abolished,COc1ccc(-c2cc(C(N)=O)ccc2SC)cc1OC [Compound 28]
3,loss of activity,CSc1ncc(C(N)=O)cc1-c1ccc2c(cnn2C)c1 [Compound 34]
4,loss of activity,CSc1ccc(C(N)=O)cc1-c1cccnc1 [Compound 22]
5,inactive,Cn1ncc2cc(-c3cc(C(N)=O)ccc3OCC3CC3)ccc21 [Compound 50]
6,no activity,CSc1ccc(C(N)=O)cc1-c1cccc2c1CC(=O)N2 [Compound 19]
7,inactive,CSc1cc(C(N)=O)cc(-c2ccc3c(cnn3C)c2)c1 [Compound 39]
8,inactive,Cn1ncc2cc(-c3cc(C(N)=O)ccc3F)ccc21 [Compound 44]
9,no activity,CSc1ccc(C(N)=O)cc1-c1ccc[nH]1 [Compound 11]
10,no activity,CSc1ccc(C(N)=O)cc1-c1ccc2nccn2c1 [Compound 18]
11,inactive,CSc1ccc(C(N)=O)cc1-c1ccccc1 [Compound 8]
12,no bioactivity,Cn1ncc2cc(-c3cccc(C(N)=O)c3)ccc21 [Compound 43]
13,loss of activity,CSc1ccc(C(N)=O)cc1-c1ccncc1 [Compound 23]
14,lack of activity,Cn1ncc2cc(-c3cc(C(N)=O)ccc3O)ccc21 [Compound 49]
15,loss of activity,CCc1ccc(C(N)=O)cc1-c1ccc2c(cnn2C)c1 [Compound 42]
16,loss of activity,Cc1ccc(C(N)=O)cc1-c1ccc2c(cnn2C)c1 [Compound 41]

# Same assay, conditions: from VCaP GRE2-luciferase IC50
row,Ligand Efficiency (LE),Compound
1,0.52,CSc1ccc(C(N)=O)cc1-c1ccc2c(c1)CCO2 [Compound 27]
2,0.37,Cn1ncc2cc(-c3cc(C(N)=O)ccc3NCCN3CCCCC3)ccc21 [Compound 55]
3,0.54,CSc1ccc(C(N)=O)cc1-c1cccc(O)c1F [Compound 31]
4,0.49,COc1ccc(-c2cc(C(N)=O)ccc2SC)cc1OC [Compound 28]
5,0.63,CSc1ccc(C(N)=O)cc1-c1ccc2cn[nH]c2c1 [Compound 14]
6,0.54,Cn1ncc2cc(-c3cncc(C(N)=O)c3)ccc21 [Compound 36]
7,0.49,CSc1ncc(C(N)=O)cc1-c1ccc2c(cnn2C)c1 [Compound 34]
8,0.37,Cn1ncc2cc(-c3cc(C(N)=O)ccc3NCCN3CCOCC3)ccc21 [Compound 54]
9,0.61,CSc1ccc(C(N)=O)cc1-c1cccnc1 [Compound 22]
10,0.43,Cn1ncc2cc(-c3cc(C(N)=O)ccc3OCC3CC3)ccc21 [Compound 50]
11,0.49,CSc1ccc(C(N)=O)cc1-c1cccc2c1CC(=O)N2 [Compound 19]
12,0.49,CSc1cc(C(N)=O)cc(-c2ccc3c(cnn3C)c2)c1 [Compound 39]
13,0.52,Cn1ncc2cc(-c3cc(C(N)=O)ccc3F)ccc21 [Compound 44]
14,0.52,CSc1ccc(C(N)=O)cc1-c1ccc2nccn2c1 [Compound 18]
15,0.61,CSc1ccc(C(N)=O)cc1-c1ccccc1 [Compound 8]
16,0.54,Cn1ncc2cc(-c3cccc(C(N)=O)c3)ccc21 [Compound 43]
17,0.61,CSc1ccc(C(N)=O)cc1-c1ccncc1 [Compound 23]
18,0.52,Cn1ncc2cc(-c3cc(C(N)=O)ccc3O)ccc21 [Compound 49]
19,0.49,CCc1ccc(C(N)=O)cc1-c1ccc2c(cnn2C)c1 [Compound 42]
20,0.52,Cc1ccc(C(N)=O)cc1-c1ccc2c(cnn2C)c1 [Compound 41]

row,Compound,Ligand Efficiency (LE)
1,CSc1ccc(C(N)=O)cc1-c1ccc2[nH]ccc2c1 [Compound 13],0.54

# Same assay, conditions: from VCaP GRE2-luciferase IC50 and cLogP
row,Lipophilic Ligand Efficiency (LLE),Compound
1,4.4,CSc1ccc(C(N)=O)cc1-c1ccc2c(c1)CCO2 [Compound 27]
2,5.3,Cn1ncc2cc(-c3cc(C(N)=O)ccc3NCCN3CCCCC3)ccc21 [Compound 55]
3,4.9,CSc1ccc(C(N)=O)cc1-c1cccc(O)c1F [Compound 31]
4,4.8,COc1ccc(-c2cc(C(N)=O)ccc2SC)cc1OC [Compound 28]
5,7.1,CSc1ccc(C(N)=O)cc1-c1ccc2cn[nH]c2c1 [Compound 14]
6,6.7,Cn1ncc2cc(-c3cncc(C(N)=O)c3)ccc21 [Compound 36]
7,6.2,CSc1ncc(C(N)=O)cc1-c1ccc2c(cnn2C)c1 [Compound 34]
8,6.4,Cn1ncc2cc(-c3cc(C(N)=O)ccc3NCCN3CCOCC3)ccc21 [Compound 54]
9,5.6,CSc1ccc(C(N)=O)cc1-c1cccnc1 [Compound 22]
10,5.1,Cn1ncc2cc(-c3cc(C(N)=O)ccc3OCC3CC3)ccc21 [Compound 50]
11,5.5,CSc1ccc(C(N)=O)cc1-c1cccc2c1CC(=O)N2 [Compound 19]
12,5.3,CSc1cc(C(N)=O)cc(-c2ccc3c(cnn3C)c2)c1 [Compound 39]
13,5.6,Cn1ncc2cc(-c3cc(C(N)=O)ccc3F)ccc21 [Compound 44]
14,5.8,CSc1ccc(C(N)=O)cc1-c1ccc[nH]1 [Compound 11]
15,5.7,CSc1ccc(C(N)=O)cc1-c1ccc2nccn2c1 [Compound 18]
16,4.6,CSc1ccc(C(N)=O)cc1-c1ccccc1 [Compound 8]
17,5.7,Cn1ncc2cc(-c3cccc(C(N)=O)c3)ccc21 [Compound 43]
18,5.6,CSc1ccc(C(N)=O)cc1-c1ccncc1 [Compound 23]
19,6.1,Cn1ncc2cc(-c3cc(C(N)=O)ccc3O)ccc21 [Compound 49]
20,5.0,CCc1ccc(C(N)=O)cc1-c1ccc2c(cnn2C)c1 [Compound 42]
21,5.4,Cc1ccc(C(N)=O)cc1-c1ccc2c(cnn2C)c1 [Compound 41]

row,Compound,Lipophilic Ligand Efficiency (LLE)
1,CSc1ccc(C(N)=O)cc1-c1ccc2[nH]ccc2c1 [Compound 13],5.1

# Same assay, conditions: read-out: VCaP GRE2-luciferase IC50; VCaP cells, 1 nM DHT, 24 h, 0–30 µM compound
row,IC50,Compound
1,> 30 µM,CSc1ccc(C(N)=O)cc1-c1ccc2c(c1)CCO2 [Compound 27]
2,> 30 µM,Cn1ncc2cc(-c3cc(C(N)=O)ccc3NCCN3CCCCC3)ccc21 [Compound 55]
3,> 30 µM,CSc1ccc(C(N)=O)cc1-c1cccc(O)c1F [Compound 31]
4,> 30 µM,COc1ccc(-c2cc(C(N)=O)ccc2SC)cc1OC [Compound 28]
5,2.2 µM,CSc1ccc(C(N)=O)cc1-c1ccc2cn[nH]c2c1 [Compound 14]
6,> 30 µM,Cn1ncc2cc(-c3cncc(C(N)=O)c3)ccc21 [Compound 36]
7,> 30 µM,CSc1ncc(C(N)=O)cc1-c1ccc2c(cnn2C)c1 [Compound 34]
8,> 30 µM,Cn1ncc2cc(-c3cc(C(N)=O)ccc3NCCN3CCOCC3)ccc21 [Compound 54]
9,> 30 µM,CSc1ccc(C(N)=O)cc1-c1cccnc1 [Compound 22]
10,> 30 µM,Cn1ncc2cc(-c3cc(C(N)=O)ccc3OCC3CC3)ccc21 [Compound 50]
11,> 30 µM,CSc1ccc(C(N)=O)cc1-c1cccc2c1CC(=O)N2 [Compound 19]
12,> 30 µM,CSc1cc(C(N)=O)cc(-c2ccc3c(cnn3C)c2)c1 [Compound 39]
13,> 30 µM,Cn1ncc2cc(-c3cc(C(N)=O)ccc3F)ccc21 [Compound 44]
14,> 30 µM,CSc1ccc(C(N)=O)cc1-c1ccc[nH]1 [Compound 11]
15,> 30 µM,CSc1ccc(C(N)=O)cc1-c1ccc2nccn2c1 [Compound 18]
16,> 30 µM,CSc1ccc(C(N)=O)cc1-c1ccccc1 [Compound 8]
17,> 30 µM,Cn1ncc2cc(-c3cccc(C(N)=O)c3)ccc21 [Compound 43]
18,> 30 µM,CSc1ccc(C(N)=O)cc1-c1ccncc1 [Compound 23]
19,> 30 µM,Cn1ncc2cc(-c3cc(C(N)=O)ccc3O)ccc21 [Compound 49]
20,> 30 µM,CCc1ccc(C(N)=O)cc1-c1ccc2c(cnn2C)c1 [Compound 42]
21,> 30 µM,Cc1ccc(C(N)=O)cc1-c1ccc2c(cnn2C)c1 [Compound 41]

row,Compound,IC50
1,CSc1ccc(C(N)=O)cc1-c1ccc2[nH]ccc2c1 [Compound 13],10.3 µM
